The test has as its target human Nav 1.8 (Homo sapiens, UniProt Q9Y5Y9). The test can be described thus: E-VIPR assay detecting and measuring Nav inhibition properties. In kind it is cell-based. To be noted: HEK cells expressing a truncated form of human Nav 1.8; compound numbers without "*" (not marked as run in the presence of human serum); read-out: measured IC50 value in the E-VIPR Assay. An outline of the steps: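 Nav inhibition was read by E-VIPR: cells were electrically stimulated while coumarin/oxonol FRET emissions were recorded. Cells were HEK expressing a truncated human Nav 1.8 and co-transduced with KIR2.1, and were assayed in 25% final human serum.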
Chain of human Nav 1.8 (Q9Y5Y9 126-399 limits assumed): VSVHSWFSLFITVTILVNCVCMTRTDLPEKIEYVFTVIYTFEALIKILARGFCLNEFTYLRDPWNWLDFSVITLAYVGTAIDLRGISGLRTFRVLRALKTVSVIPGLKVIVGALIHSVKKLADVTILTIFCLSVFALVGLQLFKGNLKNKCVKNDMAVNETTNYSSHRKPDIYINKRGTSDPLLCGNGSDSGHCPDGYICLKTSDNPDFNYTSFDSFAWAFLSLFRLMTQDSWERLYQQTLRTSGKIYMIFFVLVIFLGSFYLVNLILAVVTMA
Chain of human Nav 1.8 (Q9Y5Y9 660-890 limits assumed): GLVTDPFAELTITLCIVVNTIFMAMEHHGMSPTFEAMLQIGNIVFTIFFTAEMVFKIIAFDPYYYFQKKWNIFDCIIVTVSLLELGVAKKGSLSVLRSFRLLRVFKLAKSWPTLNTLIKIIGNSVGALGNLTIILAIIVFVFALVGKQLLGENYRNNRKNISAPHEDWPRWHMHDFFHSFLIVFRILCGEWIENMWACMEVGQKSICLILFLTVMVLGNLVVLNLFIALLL
Chain of human Nav 1.8 (Q9Y5Y9 1148-1722 limits assumed): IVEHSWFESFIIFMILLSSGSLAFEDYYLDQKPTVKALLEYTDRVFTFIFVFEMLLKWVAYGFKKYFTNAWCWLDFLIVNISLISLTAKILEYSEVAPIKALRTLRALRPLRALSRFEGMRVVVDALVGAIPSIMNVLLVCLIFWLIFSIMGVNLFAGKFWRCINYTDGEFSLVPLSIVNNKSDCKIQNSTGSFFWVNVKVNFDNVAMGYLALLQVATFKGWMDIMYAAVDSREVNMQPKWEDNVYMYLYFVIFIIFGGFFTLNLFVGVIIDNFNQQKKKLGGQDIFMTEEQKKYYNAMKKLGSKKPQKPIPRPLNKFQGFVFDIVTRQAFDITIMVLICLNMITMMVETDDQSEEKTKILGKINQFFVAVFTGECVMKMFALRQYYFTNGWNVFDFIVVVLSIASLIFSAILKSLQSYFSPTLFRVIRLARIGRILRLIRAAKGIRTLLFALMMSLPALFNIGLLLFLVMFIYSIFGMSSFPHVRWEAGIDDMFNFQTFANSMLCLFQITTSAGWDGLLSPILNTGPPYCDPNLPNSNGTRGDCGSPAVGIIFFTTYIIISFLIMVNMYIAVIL
One may read the IC50 as the midpoint of a concentration-inhibition curve. In the case of `CO[C@@H]1CCN(CCOc2c([C@H]3[C@H](C(=O)Nc4ccnc(C(N)=O)c4)O[C@@](C)(C(F)(F)F)[C@H]3C)ccc(F)c2F)C1` [Compound 128, 4-((2R,3S,4S,5R)-3-(3,4-difluoro-2-(2-((R)-3-methoxypyrrolidin-1-yl)ethoxy)phenyl)-4,5-dimethyl-5-(trifluoromethyl)tetrahydrofuran-2-carboxamido)picolinamide], the IC50 lay in the range of 10 to 100 nM. Take `CO[C@H]1CCN(CCOc2c([C@H]3[C@H](C(=O)Nc4ccnc(C(N)=O)c4)O[C@@](C)(C(F)(F)F)[C@H]3C)ccc(F)c2F)C1` [Compound 129, 4-((2R,3S,4S,5R)-3-(3,4-difluoro-2-(2-((S)-3-methoxypyrrolidin-1-yl)ethoxy)phenyl)-4,5-dimethyl-5-(trifluoromethyl)tetrahydrofuran-2-carboxamido)picolinamide]: the IC50 was in the range of 10 to 100 nM. `C[C@H]1[C@@H](c2ccc(F)c(F)c2OCCN=S(C)(C)=O)[C@H](C(=O)Nc2ccnc(C(N)=O)c2)O[C@@]1(C)C(F)(F)F` [Compound 130, 4-((2R,3S,4S,5R)-3-(2-(2-((dimethyl(oxo)-26-sulfaneylidene)amino)ethoxy)-3,4-difluorophenyl)-4,5-dimethyl-5-(trifluoromethyl)tetrahydrofuran-2-carboxamido)picolinamide]: the IC50 is less than 10 nM. For the compound `C[C@H]1[C@@H](c2ccc(F)c(F)c2OCCN2C3COCC2C3)[C@H](C(=O)Nc2ccnc(C(N)=O)c2)O[C@@]1(C)C(F)(F)F` [Compound 131, 4-((2R,3S,4S,5R)-3-(2-(2-(3-oxa-6-azabicyclo[3.1.1]heptan-6-yl)ethoxy)-3,4-difluorophenyl)-4,5-dimethyl-5-(trifluoromethyl)tetrahydrofuran-2-carboxamido)picolinamide], the IC50 lay in the range of 10 to 100 nM.

In the case of `C=C(CO)COc1c([C@H]2[C@H](C(=O)Nc3ccnc(C(N)=O)c3)O[C@@](C)(C(F)(F)F)[C@H]2C)ccc(F)c1F` [Compound 132], the concentration for half-maximal inhibition (IC50) was less than 10 nM. As for `C[C@H]1[C@@H](c2ccc(F)c(F)c2OCCCN2CC(F)C2)[C@H](C(=O)Nc2ccnc(C(N)=O)c2)O[C@@]1(C)C(F)(F)F` [Compound 133, 4-((2R,3S,4S,5R)-3-(3,4-difluoro-2-(3-(3-fluoroazetidin-1-yl)propoxy)phenyl)-4,5-dimethyl-5-(trifluoromethyl)tetrahydrofuran-2-carboxamido)picolinamide], the IC50 is less than 10 nM.

In the case of `C[C@H]1[C@@H](c2ccc(F)c(F)c2OCCCN2CCC2)[C@H](C(=O)Nc2ccnc(C(N)=O)c2)O[C@@]1(C)C(F)(F)F` [Compound 134, 4-((2R,3S,4S,5R)-3-(2-(3-(azetidin-1-yl)propoxy)-3,4-difluorophenyl)-4,5-dimethyl-5-(trifluoromethyl)tetrahydrofuran-2-carboxamido)picolinamide], the IC50 lay in the range of 10 to 100 nM.

`C=C(COC)COc1c([C@H]2[C@H](C(=O)Nc3ccnc(C(N)=O)c3)O[C@@](C)(C(F)(F)F)[C@H]2C)ccc(F)c1F` [Compound 135]: the IC50 lay in the range of 10 to 100 nM.

Turning to `CNC(=O)c1cc(NC(=O)[C@@H]2O[C@@](C)(C(F)(F)F)[C@@H](C)[C@H]2c2ccc(F)c(F)c2OCCN2CC3(COC3)C2)ccn1` [Compound 136, 4-((2R,3S,4S,5R)-3-(2-(2-(2-oxa-6-azaspiro[3.3]heptan-6-yl)ethoxy)-3,4-difluorophenyl)-4,5-dimethyl-5-(trifluoromethyl)tetrahydrofuran-2-carboxamido)-N-methylpicolinamide], the IC50 fell in the range of 10 to 100 nM. With `C[C@@H](O)COc1c([C@H]2[C@H](C(=O)Nc3ccnc(C(N)=O)c3)O[C@@](C)(C(F)(F)F)[C@H]2C)ccc(F)c1F` [Compound 152, 4-((2R,3S,4S,5R)-3-(3,4-difluoro-2-((R)-2-hydroxypropoxy)phenyl)-4,5-dimethyl-5-(trifluoromethyl)tetrahydrofuran-2-carboxamido) picolinamide], the IC50 lay in the range of 10 to 100 nM. The value for `C[C@H](O)COc1c([C@H]2[C@H](C(=O)Nc3ccnc(C(N)=O)c3)O[C@@](C)(C(F)(F)F)[C@H]2C)ccc(F)c1F` [Compound 153] was less than 10 nM.

Turning to `COc1c(Cl)cc([C@H]2[C@H](C(=O)Nc3ccnc(C(N)=O)c3)O[C@@](C)(C(F)(F)F)[C@H]2C)c(OC)c1F` [Compound 154, 4-((2R,3S,4S,5R)-3-(5-chloro-3-fluoro-2,4-dimethoxyphenyl)-4,5-dimethyl-5-(trifluoromethyl)tetrahydrofuran-2-carboxamido) picolinamide], the IC50 was less than 10 nM. As for `COCC(CO)COc1c([C@H]2[C@H](C(=O)Nc3ccnc(C(N)=O)c3)O[C@@](C)(C(F)(F)F)[C@H]2C)ccc(F)c1F` (stereo partly drawn) [Compound 155, 4-((2R,3S,4S,5R)-3-(3,4-difluoro-2-(3-hydroxy-2-(methoxymethyl)propoxy)phenyl)-4,5-dimethyl-5-(trifluoromethyl)tetrahydrofuran-2-carboxamido) picolinamide], the IC50 was in the range of 10 to 100 nM. Take `C[C@H]1[C@@H](c2ccc(F)c(F)c2OCCC2(O)CC2)[C@H](C(=O)Nc2ccnc(C(N)=O)c2)O[C@@]1(C)C(F)(F)F` [Compound 156, 4-((2R,3S,4S,5R)-3-(3,4-difluoro-2-(2-(1-hydroxycyclopropyl)ethoxy)phenyl)-4,5-dimethyl-5-(trifluoromethyl)tetrahydrofuran-2-carboxamido)picolinamide]: the IC50 is less than 10 nM. Regarding `C[C@@H](Oc1c([C@H]2[C@H](C(=O)Nc3ccnc(C(N)=O)c3)O[C@@](C)(C(F)(F)F)[C@H]2C)ccc(F)c1F)C1COC1` [Compound 157, 4-((2R,3S,4S,5R)-3-(3,4-difluoro-2-((R)-1-(oxetan-3-yl)ethoxy)phenyl)-4,5-dimethyl-5-(trifluoromethyl)tetrahydrofuran-2-carboxamido)picolinamide], the IC50 is less than 10 nM. Regarding `C[C@H](Oc1c([C@H]2[C@H](C(=O)Nc3ccnc(C(N)=O)c3)O[C@@](C)(C(F)(F)F)[C@H]2C)ccc(F)c1F)C1COC1` [Compound 158, 4-((2R,3S,4S,5R)-3-(3,4-difluoro-2-((S)-1-(oxetan-3-yl)ethoxy)phenyl)-4,5-dimethyl-5-(trifluoromethyl)tetrahydrofuran-2-carboxamido)picolinamide], the IC50 is less than 10 nM.

Regarding `C[C@H]1[C@@H](c2ccc(F)c(F)c2OCC2(O)CC2)[C@H](C(=O)Nc2ccnc(C(N)=O)c2)O[C@@]1(C)C(F)(F)F` [Compound 159, 4-((2R,3S,4S,5R)-3-(3,4-difluoro-2-((1-hydroxycyclopropyl)methoxy)phenyl)-4,5-dimethyl-5-(trifluoromethyl)tetrahydrofuran-2-carboxamido)picolinamide], the IC50 was less than 10 nM. Consider `COC1CC(Oc2c([C@H]3[C@H](C(=O)Nc4ccnc(C(N)=O)c4)O[C@@](C)(C(F)(F)F)[C@H]3C)ccc(F)c2F)C1` (stereo partly drawn) [Compound 162, 4-((2R,3S,4S,5R)-3-(3,4-difluoro-2-(3-methoxycyclobutoxy)phenyl)-4,5-dimethyl-5-(trifluoromethyl)tetrahydrofuran-2-carboxamido)picolinamide], for which the 50% inhibitory concentration (IC50) was less than 10 nM. Take `C[C@H]1[C@@H](c2ccc(F)c(F)c2OC2CC(O)C2)[C@H](C(=O)Nc2ccnc(C(N)=O)c2)O[C@@]1(C)C(F)(F)F` (stereo partly drawn) [Compound 163, 4-((2R,3S,4S,5R)-3-(3,4-difluoro-2-(3-hydroxycyclobutoxy)phenyl)-4,5-dimethyl-5-(trifluoromethyl)tetrahydrofuran-2-carboxamido)picolinamide]: the IC50 is less than 10 nM. The value for `CC1C(c2ccc(F)c(F)c2OC2CC(O)C2)C(C(=O)Nc2ccnc(C(N)=O)c2)OC1(C)C(F)(F)F` [Compound 166, 4-((2R,3S,4S,5R)-3-(3,4-difluoro-2-((1s,3R)-3-hydroxycyclobutoxy)phenyl)-4,5-dimethyl-5-(trifluoromethyl)tetrahydrofuran-2-carboxamido)picolinamide] was less than 10 nM; that for `C[C@H]1[C@@H](c2ccc(F)c(F)c2OCc2cn[nH]c2)[C@H](C(=O)Nc2ccnc(C(N)=O)c2)O[C@@]1(C)C(F)(F)F` [Compound 168, 4-((2R,3S,4S,5R)-3-(2-((1H-pyrazol-4-yl)methoxy)-3,4-difluorophenyl)-4,5-dimethyl-5-(trifluoromethyl)tetrahydrofuran-2-carboxamido)picolinamide] was less than 10 nM. On to `C[C@H]1[C@@H](c2ccc(F)c(F)c2OCC(CO)C(F)(F)F)[C@H](C(=O)Nc2ccnc(C(N)=O)c2)O[C@@]1(C)C(F)(F)F` (stereo partly drawn) [Compound 169, 4-((2R,3S,4S,5R)-3-(3,4-difluoro-2-(3,3,3-trifluoro-2-(hydroxymethyl)propoxy)phenyl)-4,5-dimethyl-5-(trifluoromethyl)tetrahydrofuran-2-carboxamido)picolinamide], for which the IC50 is less than 10 nM. On to `CC(=O)C1CC(Oc2c([C@H]3[C@H](C(=O)Nc4ccnc(C(N)=O)c4)O[C@@](C)(C(F)(F)F)[C@H]3C)ccc(F)c2F)C1` (stereo partly drawn) [Compound 170, 4-((2R,3S,4S,5R)-3-(2-(3-acetylcyclobutoxy)-3,4-difluorophenyl)-4,5-dimethyl-5-(trifluoromethyl)tetrahydrofuran-2-carboxamido)picolinamide], for which the IC50 was less than 10 nM.

In the case of `C[C@H]1[C@@H](c2ccc(F)c(F)c2OC2CS(=O)(=O)C2)[C@H](C(=O)Nc2ccnc(C(N)=O)c2)O[C@@]1(C)C(F)(F)F` [Compound 171, 4-((2R,3S,4S,5R)-3-(2-((1,1-dioxidothietan-3-yl)oxy)-3,4-difluorophenyl)-4,5-dimethyl-5-(trifluoromethyl)tetrahydrofuran-2-carboxamido)picolinamide], the 50% inhibitory concentration (IC50) lay in the range of 100 to 1000 nM. The value for `C=C(/C=C/Oc1c([C@H]2[C@H](C(=O)Nc3ccnc(C(N)=O)c3)O[C@@](C)(C(F)(F)F)[C@H]2C)ccc(F)c1F)C(F)(F)F` [Compound 172, 4-((2R,3S,4S,5R)-3-(3,4-difluoro-2-(((E)-3-(trifluoromethyl)buta-1,3-dien-1-yl)oxy)phenyl)-4,5-dimethyl-5-(trifluoromethyl)tetrahydrofuran-2-carboxamido)picolinamide] was 10 to 100 nM.

(Values after patent US20250213555A1, “SUBSTITUTED TETRAHYDROFURAN ANALOGS AS MODULATORS OF SODIUM CHANNELS” (VERTEX PHARMACEUTICALS INCORPORATED, priority 2021, published 2025).)
